# Experimental data reported in patent US20190314361A1 (Athenex Therapeutics Limited, priority 2018, published 2019).
# “And” between values parts separate entries of the source, which are not always exact repeats. Equal values may be shown once. Read-outs that look alike come from different tables or passages of the source.
# Key:
# [1] = CNS safety pharmacology study in rats; type: in vivo, rat; details: oral administration
# [2] = Cardiovascular safety pharmacology in dogs; type: in vivo, dog; details: oral administration
# [3] = tested on: NCI-H460 lung human cancer cell line; details: Athymic nude mice, paclitaxel alone 24 mg/kg IV, every other day for 4 doses
# Description: (§1) In these studies, tumor inhibition rate (IR %) was calculated as ([1−relative tumor growth in treated group/relative tumor growth in control group]×100). Tumor regression was calculated as (Mean Tumor WeightEnd of treatment/Mean tumor WeightBeginning of treatment)×100. Therefore, a value <100% for tumor regression indicates a decrease in tumor weight over the course of the study and a value >100% indicates an increase in tumor weight. Tumor growth delay was calculated as the median number of days to reach two tumor mass doublings.
# [4] = tested on: SK-OV-3 ovarian human cancer cell line; details: NCr-nu (athymic) mice, paclitaxel alone 18 mg/kg IV, every other day for 4 doses
# Description: as §1
# [5] = tested on: SKOV-3 ovarian human cancer cell line; details: NU/Nu Balb/C mice, paclitaxel alone 30 mg/kg IV, 1x weekly for 3 weeks
# Description: as §1
# [6] = tested on: A431 vaginal epidermoid human cancer cell line; details: NU/Nu Balb/C mice, paclitaxel alone 30 mg/kg IV, 1x weekly for 3 weeks
# Description: as §1
# [7] = tested on: HT-29 colon human cancer cell line; details: NU/Nu Balb/C mice
# Description: as §1
# [8] = tested on: MDA-MB-231 mammary human cancer cell line; details: NCr-nu (athymic) mice, paclitaxel alone 18 mg/kg IV, every other day for 4 doses
# Description: as §1
# [9] = tested on: MS1 cells; assay: In vitro cytotoxicity (MTT) in MS1 cells; type: cell-based, mouse; details: MS1, 72 hours, Mean ± SD
# Description: (§2) Three independent experiments of two replicates were completed. A 10 μL aliquot of 3-(4,5-dimethylthiazol-2-yl)-2,5-diphenyltetrazolium bromide (MTT) solution (5 mg/mL in PBS) was added to each well and incubated at 37° C. for 2 hours. The culture medium was removed followed by addition of 100 μL of DMSO to each well. The absorbance in each well was measured at 540 nm using a SpectraMax microplate reader. A sigmoid Emax model using nonlinear regression (Equation 1) with least squares fit was used to estimate Emax and GI50 values using GraphPad Prism 6 for each experiment:
# (§3) The average Emax and GI50 values and standard deviated from three individual experiments were calculated and reported. R-squared of all curve fits exceeded 0.9.
# [10] = tested on: tubulin in MS1, SVRA221a, and SVRbag4 cell lines; assay: Immunofluorescence microscopy of tubulin disruption; type: cell-based, mouse; details: SVRbag4 treated with 1-100 nM paclitaxel for 3 hours
# Description: Coverslips (22-mm) were pre-coated with rat tail collagen for 1 hour then seeded with cells in 6-well plates for 24 hours before treatment. […] After blocking with 2% BSA in PBS for 30 min, cells were incubated with anti α-tubulin antibody (Sigma 6199) diluted in blocking buffer (2% BSA in PBS) for 1.5 hours at room temperature. Cells were washed three times with PBS and incubated with […] anti-Mouse IgG (Invitrogen) for 1 hours at room temperature. Following three PBS washes, coverslips were mounted on glass slides in ProLong antifade reagent (Invitrogen). Fluorescent images were captured using a Nikon TE2000-E inverted microscope for two independent experiments.
# [11] = tested on: SVRbag4 cells; assay: In vitro cytotoxicity (MTT) in SVRbag4 cells; type: cell-based, mouse; details: SVRbag4, 72 hours, Mean ± SD
# Description: as §2, §3
# [12] = tested on: HMEC-1 cells; assay: In vitro cytotoxicity (MTT) in HMEC-1 cells; type: cell-based, human; details: HMEC-1, 72 hours, Mean ± SD
# Description: as §2, §3
# [13] = tested on: SVRA221a cells; assay: In vitro cytotoxicity (MTT) in SVRA221a cells; type: cell-based, mouse; details: 72 hours, Mean ± SD
# Description: as §2, §3
# [14] = Paclitaxel pharmacokinetics in rats after single oral dose with Compound A; type: in vivo, rat
# [15] = Paclitaxel pharmacokinetics in dogs after single oral dose with Compound A; type: in vivo, dog
# [16] = human; for AUC0-24 / Cmax: range across dose levels, 2 consecutive daily oral doses
# Description: A 2-part study was conducted in subjects with advanced/metastatic or recurrent gastric cancer. […] In some cases, an additional 15 mg tablet of Compound A on Day 2 was given in each dosing week. A total of 56 subjects enrolled in this study: 10 subjects with advanced malignant tumors in Part 1 and 46 subjects with advanced gastric cancer in Part 2.
# [17] = dogs
# [18] = for AUCinf / AUClast / CL/F / Cmax / MRTinf / Vd/F / t1/2 / CLR: in vivo, po
# [19] = Mus musculus, medium pre-supplemented with 1 μM Compound A
# [20] = single oral dose paclitaxel 5 mg/kg with Compound A
# [21] = single oral dose paclitaxel 10 mg/kg with Compound A
# [22] = single oral dose paclitaxel 20 mg/kg with Compound A
# [23] = single oral dose paclitaxel 30 mg/kg with Compound A
# [24] = single oral dose paclitaxel 40 mg/kg with Compound A
# [25] = single oral dose paclitaxel 50 mg/kg with Compound A
# [26] = single oral dose paclitaxel 2 mg/kg with Compound A
# [27] = single oral dose paclitaxel 4 mg/kg with Compound A
# [28] = single oral dose paclitaxel 6 mg/kg with Compound A
# [29] = Fasted, single oral dose paclitaxel 6 mg/kg with Compound A 3 mg/kg
# [30] = Fed, single oral dose paclitaxel 6 mg/kg with Compound A 3 mg/kg
smiles,measurement,setting,value
COc1cc2c(cc1OC)CN(CCc1ccc(-n3nnc(-c4cc(OC)c(OC)cc4NC(=O)c4cc(=O)c5ccccc5o4)n3)cc1)CC2 [Compound A],Effect on body temperature,[1],absence
same,Effect on PR and QRS intervals,[2],absence
"CC(=O)O[C@H]1C(=O)[C@@]2(C)[C@H]([C@H](OC(=O)c3ccccc3)[C@]3(O)C[C@H](OC(=O)[C@H](O)[C@@H](NC(=O)c4ccccc4)c4ccccc4)C(C)=C1C3(C)C)[C@]1(OC(C)=O)CO[C@@H]1C[C@@H]2O [Paclitaxel, 5,20-Epoxy-1,2,4,7,10-13-hexahydroxytax-11-en-9-one-4,10-diacetate 2-benzoate 13-ester with (2R,3S)—N-benzoyl-3-phenylisoserine]",Effect: growth delay,[3],16.3 days
same,Effect: growth delay,[4],43.8 days
same,Effect: tumor inhibition rate (IR %),[5],72.79 IR %
same,Effect: tumor inhibition rate (IR %),[6],45.41 IR %
same,Effect: tumor regression,"[7]; paclitaxel alone 20 mg/kg IV every 4 days for 4 doses, >100% = increase in tumor weight",163.09% tumor
same,Effect: tumor inhibition rate (IR %),[7]; paclitaxel alone 25 mg/kg IP every 4 days for 4 doses,65.82 IR %
same,Effect: growth delay,[8],>55.9 days
same,Emax (% inhibition),[9],93 ± 4.5 % inhibition
same,GI50,"[9]; Mus musculus, MS-1, medium pre-supplemented with 1 μM Compound A",1.8 ± 0.36 ng/mL
same,concentration at which condensed and rounded morphology and polymerization of microtubules start,[10],5-10 nM and 4.2-8.5 ng/mL
same,GI50,[11]; [19],3.9 ± 1 ng/mL
same,Emax (% inhibition),[11],99 ± 1.4 % inhibition
same,Emax (% inhibition),[12],99 ± 0.10 % inhibition
same,GI50,"[12]; Homo sapiens, medium pre-supplemented with 1 μM Compound A",0.46 ± 0.23 ng/mL
same,Emax (% inhibition),[13],96 ± 1.1 % inhibition
same,GI50,[13]; [19],1.8 ± 1 ng/mL
same,AUClast Paclitaxel,[14]; [20],333 ng·h/mL
same,Cmax Paclitaxel,[14]; [20],103 ng/mL
same,Tmax Paclitaxel,[14]; [20],0.6 h
same,AUClast Paclitaxel,[14]; [21],1027 ng·h/mL
same,Cmax Paclitaxel,[14]; [21],356 ng/mL
same,Tmax Paclitaxel,[14]; [21],0.7 h
same,AUClast Paclitaxel,[14]; [22],3009 ng·h/mL
same,Cmax Paclitaxel,[14]; [22],852 ng/mL
same,Tmax Paclitaxel,[14]; [22],1.2 h
same,AUClast Paclitaxel,[14]; [23],6638 ng·h/mL
same,Cmax Paclitaxel,[14]; [23],1761 ng/mL
same,Tmax Paclitaxel,[14]; [23],1.2 h
same,t1/2 Paclitaxel,[14]; [23],6.0 h
same,AUClast Paclitaxel,[14]; [24],11052 ng·h/mL
same,Cmax Paclitaxel,[14]; [24],2488 ng/mL
same,Tmax Paclitaxel,[14]; [24],1.5 h
same,t1/2 Paclitaxel,[14]; [24],5.5 h
same,AUClast Paclitaxel,[14]; [25],13124 ng·h/mL
same,Cmax Paclitaxel,[14]; [25],3067 ng/mL
same,Tmax Paclitaxel,[14]; [25],1.4 h
same,t1/2 Paclitaxel,[14]; [25],5.3 h
same,AUClast Paclitaxel,[15]; [26],413 ng·h/mL
same,Tmax Paclitaxel,[15]; [26],0.5 h
same,AUClast Paclitaxel,[15]; [27],1331 ng·h/mL
same,Tmax Paclitaxel,[15]; [27],0.7 h
same,AUClast Paclitaxel,[15]; [28],2123 ng·h/mL
same,Tmax Paclitaxel,[15]; [28],0.5 h
same,"Overall exposure on Day 2, higher than Day 1","[16]; in vivo, po",20-30%
same,AUC0-24,[16]; Day 1,611 to 894 ng·h/mL
same,Cmax,[16]; Day 1,202 to 280 ng/mL
same,AUC0-24,[16]; Day 2,735 to 1081 ng·h/mL
same,Cmax,[16]; Day 2,159 to 315 ng/mL
same,AUClast,[17]; [29],1599.8 ± 416.5 ng·h/mL
same,CL/F,[17]; [29],4.2 ± 1.2 L/h
same,Tmax,[17]; [29],0.5 ± 0.0 h
same,t1/2,[17]; [29],9.4 ± 0.3 h
same,AUClast,[17]; [30],849.1 ± 119.9 ng·h/mL
same,CL/F,[17]; [30],6.4 ± 1.3 L/h
same,Cmax,[17]; [30],299.0 ± 54.6 ng/mL
same,Tmax,[17]; [30],0.7 ± 0.2 h
same,t1/2,[17]; [30],9.9 ± 2.7 h
same,"Paclitaxel Cmax and AUC, fasted group as compared to fed group",[17]; orally administered paclitaxel,~2 fold
same,MTD,"[18]; 24 subjects with advanced solid cancer, oral paclitaxel 60 to 420 mg/m^2 on days 1, 8, 15 of 28-day cycle with Compound A",not reached
same,AUCinf,"[18]; human, 60 mg/m2",727.1 ng·h/mL
same,AUClast,"[18]; human, 60 mg/m2",584.1 ng·h/mL
same,CL/F,"[18]; human, 60 mg/m2",178.4 L/h
same,Cmax,"[18]; human, 60 mg/m2",149.6 ng/mL
same,MRTinf,"[18]; human, 60 mg/m2",28.6 h
same,Vd/F,"[18]; human, 60 mg/m2",9128.7 L
same,t1/2,"[18]; human, 60 mg/m2",32.1 h
same,AUCinf,"[18]; human, 120 mg/m2",1840.1 ng·h/mL
same,AUClast,"[18]; human, 120 mg/m2",1611.1 ng·h/mL
same,CLR,"[18]; human, 120 mg/m2",3.0 L/h
same,MRTinf,"[18]; human, 120 mg/m2",17.0 h
same,Vd/F,"[18]; human, 120 mg/m2",4036.0 L
same,AUCinf,"[18]; human, 180 mg/m2",1985.0 ng·h/mL
same,AUClast,"[18]; human, 180 mg/m2",1673.9 ng·h/mL
same,CL/F,"[18]; human, 180 mg/m2",173.4 L/h
same,CLR,"[18]; human, 180 mg/m2",1.8 L/h
same,Cmax,"[18]; human, 180 mg/m2",432.0 ng/mL
same,MRTinf,"[18]; human, 180 mg/m2",21.9 h
same,Vd/F,"[18]; human, 180 mg/m2",6030.7 L
same,t1/2,"[18]; human, 180 mg/m2",24.4 h
same,AUCinf,"[18]; human, 240 mg/m2",2971.2 ng·h/mL
same,AUClast,"[18]; human, 240 mg/m2",2547.4 ng·h/mL
same,CL/F,"[18]; human, 240 mg/m2",147.6 L/h
same,CLR,"[18]; human, 240 mg/m2",2.4 L/h
same,Cmax,"[18]; human, 240 mg/m2",509.6 ng/mL
same,MRTinf,"[18]; human, 240 mg/m2",23.4 h
same,Vd/F,"[18]; human, 240 mg/m2",6011.5 L
same,t1/2,"[18]; human, 240 mg/m2",25.7 h
same,AUCinf,"[18]; human, 300 mg/m2",3481.1 ng·h/mL
same,AUClast,"[18]; human, 300 mg/m2",3135.0 ng·h/mL
same,CLR,"[18]; human, 300 mg/m2",2.0 L/h
same,MRTinf,"[18]; human, 300 mg/m2",16.2 h
same,Vd/F,"[18]; human, 300 mg/m2",4927.3 L
same,AUCinf,"[18]; human, 360 mg/m2",2851.7 ng·h/mL
same,AUClast,"[18]; human, 360 mg/m2",2512.1 ng·h/mL
same,CL/F,"[18]; human, 360 mg/m2",228.7 L/h
same,CLR,"[18]; human, 360 mg/m2",7.3 L/h
same,Cmax,"[18]; human, 360 mg/m2",655.0 ng/mL
same,MRTinf,"[18]; human, 360 mg/m2",18.7 h
same,Vd/F,"[18]; human, 360 mg/m2",6837.8 L
same,t1/2,"[18]; human, 360 mg/m2",20.8 h
same,AUCinf,"[18]; human, 420 mg/m2",3731.5 ng·h/mL
same,AUClast,"[18]; human, 420 mg/m2",3407.1 ng·h/mL
same,CL/F,"[18]; human, 420 mg/m2",244.9 L/h
same,CLR,"[18]; human, 420 mg/m2",2.9 L/h
same,Cmax,"[18]; human, 420 mg/m2",707.5 ng/mL
same,MRTinf,"[18]; human, 420 mg/m2",14.7 h
same,Vd/F,"[18]; human, 420 mg/m2",7175.1 L
same,t1/2,"[18]; human, 420 mg/m2",19.9 h
same,T1/2,"[18]; human, range over oral paclitaxel doses 60 to 420 mg/m^2 with Compound A",19.9 to 32.1 h
